Experimental data published in patent US20160136286A1, “DRUG DELIVERY COMPOSITION” (The Queen's University of Belfast, priority 2008, published 2016).

Experiments:
[1] = solution in acetonitrile exposed to alternating periods of light and dark (365 nm), progress of drug liberation monitored; format: physicochemical; conditions: six alternating periods (FIG. 2)
Text: A solution of 2 in acetonitrile was then exposed to alternating periods of light and dark using the same conditions for light conditions as previously. […] The dose of liberated drug thus correlates with the duration of exposure to light. In this example, six periods of dosing and nondosing are alternated; this can be extended to any discrete dose required, in principle to the level of control provided from the light source, which includes molecule-scale control from low bursts of light deliverable from a laser source.

[2] = irradiation of a solution of the conjugate with 365 nm UV-A radiation, followed by UV-visible spectra; format: physicochemical; conditions: solution irradiated with 365 nm UV-A; judged from isosbestic points at 231 and 262 nm (FIG. 1)
Text: The behaviour of 2-4 is characterised by irradiating a solution using 365 nm UV-A radiation. As the photochemical reaction proceeds, the UV-visible spectrum of the reaction mixture changes (FIG. 1), reflecting the formation of 1 and drug and the consumption of conjugate. […] The identity of reaction products was verified by chromatographic separation, followed by spectroscopic analysis to be solely the corresponding drug and 1. The reaction proceeded in an analogous fashion to related nondrug examples 12 and all three conjugates 2-4 behaved similarly.

With `COc1cc(OC)cc(C(OC(=O)c2ccccc2OC(C)=O)C(=O)c2ccccc2)c1` (stereo not drawn) [Compound 2] the “drug liberation reaction under light conditions” value ([1]; 365 nm light periods) was “proceeds” and the “liberation of drug in dark conditions” value ([1]; dark periods) was “stopped completely”.

For `COc1cc(OC)cc(C(OC(=O)C(C)c2ccc(CC(C)C)cc2)C(=O)c2ccccc2)c1` (stereo not drawn) [Compound 3], the “side products of the photochemical reaction” value [2] was “no side products”.
